The test system of one assay is phosphorylated Akt. In words: Level of phosphorylated Akt by western blotting in primary mouse hepatocytes treated with EphB4 inhibitor. The class given is cell-based. The note with it: LCA 10 μM and 20 μM overnight, 10 nM insulin 20 min before collection, western blotting (FIG. 2C). The protocol: After the liver tissue was fully digested, it was suspended with DMEM medium, flew through a cell sieve with a diameter of 70 μm, and was centrifugated, thereby the primary hepatocytes were obtained. The cells were resuspended in complete culture medium and dispersed into a petri dish or plate. After the cells were attached, they were treated with LCA (10 μM and 20 μM) overnight.
In general terms: A western blot detects proteins with antibodies after separation by electrophoresis.

Another assay deals with flag-InsR. In words: Protein level of flag-InsR by Western blotting in HEK293T cells co-expressing insulin receptor and EphB4, treated with degradation pathway inhibitors. The assay is classed as cell-based. The note with it: HEK293T cells co-expressing flag-InsR and EphB4-HA; ammonium chloride 5 mM, chloroquine 10 μM, 8 h; Western blotting (FIG. 2B). The protocol:
GFP was co-transfected as a reference for foreign proteins. The cells were treated with proteasome degradation pathway inhibitor MG132 (10 μM), lysosome degradation pathway inhibitor ammonium chloride (5 mM) and chloroquine (10 μM) for 8 h.

`C[C@H](CCC(=O)O)[C@H]1CC[C@H]2[C@@H]3CC[C@@H]4C[C@H](O)CC[C@]4(C)[C@H]3CC[C@]12C` [LCA, 3α-hydroxy-5β-cholanoic acid]: the “level of phosphorylated Akt” value in the assay on phosphorylated Akt is reported as “increase the level of phosphorylated Akt”. In the case of `Cl.N` [ammonium chloride, Ammonium chloride], the “protein level of flag-InsR (effect on EphB4-promoted insulin receptor degradation)” value with flag-InsR is “partially rescue the promoting effect of EphB4 on insulin receptor degradation to some extent”. Take `CCN(CC)CCCC(C)Nc1ccnc2cc(Cl)ccc12` (stereo not drawn) [chloroquine]: the “protein level of flag-InsR (effect on EphB4-promoted insulin receptor degradation)” value in the assay on flag-InsR is reported as “partially rescue the promoting effect of EphB4 on insulin receptor degradation to some extent”.

These data come from US20230132526A1 (Institute of Materia Medica, Chinese Academy of Medical …, priority 2020, published 2023).
